Read-outs that look alike come from different tables or passages of the source.
How the values were obtained:
Type in all cases: cell-based
[1] = tested on: SK-BR-3 (human breast cancer cell); test: MTT inhibition of proliferation, SK-BR-3; settings: SK-BR-3, MTT, 48 h, read-out: Inhibitory Activity on the Proliferation of Tumor Cells (IC50 ± SD) SK-BR-3
Protocol: (§1) The compound 8 of the invention was prepared into required concentrations using a culture medium containing 0.1% DMSO.
(§2) The seven tumor cells including MCF-7 (human breast cancer cell, ATCC:HTB-22), SK-BR-3 (human breast cancer cell, ATCC:HTB-30), A549 (human non-small cell lung cancer cell, ATCC:CRM-CCL-185), HCT116 (human colon cancer cell, ATCC:CCL-247), U-118 MG (human astrocytoma, ATCC:HTB-15), U-87 MG (human astrocytoma, ATCC:HTB-14), MDA-MB-468 (human breast cancer cell, ATCC:HTB-132) were all purchased from American Type Culture Collection (ATCC). […]
(§3) MCF-7, SK-BR-3, A549, HCT 116, U-118 MG U-87 MG and MDA-MB-468 cells in logarithmic phase with excellent growth conditions were grafted into a 96-well plate according to a density of 1×10^4 cells/mL, wherein each well was grafted 100 μl. […] A supernate was absorbed out carefully, 150 μl DMSO was added into each hole to dissolve purple residue (formazan), flatly oscillated for 10 min to completely dissolve deposits, then O.D. value (absorbancy) was measured on a microplate reader, wherein the wavelength was 570 nm. […]
(§4) The test was repeated for thrice. A diagram was made by plotting the inhibition rate against the concentration of the compound, and the IC50 (half effective inhibitive concentration) value of the compound 8 of the invention was calculated. […]

[2] = tested on: U-118 MG (human astrocytoma); test: MTT inhibition of proliferation, U-118 MG; settings: 48 h, read-out: Inhibitory Activity on the Proliferation of Tumor Cells (IC50 ± SD) U-118 MG
Protocol: as §1, §2, §3, §4

[3] = tested on: U-87 MG (human astrocytoma); test: MTT inhibition of proliferation, U-87 MG; settings: 48 h, read-out: Inhibitory Activity on the Proliferation of Tumor Cells (IC50 ± SD) U-87 MG
Protocol: as §1, §2, §3, §4

[4] = tested on: MDA-MB-468 (human breast cancer cell); test: MTT inhibition of proliferation, MDA-MB-468; settings: MDA-MB-468, MTT, 48 h, read-out: Inhibitory Activity on the Proliferation of Tumor Cells (IC50 ± SD) MDA-MB-468
Protocol: as §1, §2, §3, §4

[5] = tested on: MCF-7 (human breast cancer cell); test: MTT inhibition of proliferation, MCF-7; settings: MCF7, MCF-7, MTT, 48 h, read-out: Inhibitory Activity on the Proliferation of Tumor Cells (IC50 ± SD) MCF-7
Protocol: as §1, §2, §3, §4

[6] = tested on: A549 (human non-small cell lung cancer cell); test: MTT inhibition of proliferation, A549; settings: 48 h, read-out: Inhibitory Activity on the Proliferation of Tumor Cells (IC50 ± SD) A549
Protocol: as §1, §2, §3, §4

[7] = tested on: HCT116 (human colon cancer cell); test: MTT inhibition of proliferation, HCT 116; settings: HCT 116, MTT, 48 h, read-out: Inhibitory Activity on the Proliferation of Tumor Cells (IC50 ± SD) HCT 116
Protocol: as §1, §2, §3, §4

IC50 [1] | IC50 [2] | IC50 [3] | IC50 [4] | IC50 [5] | IC50 ([1]; Homo sapiens) | IC50 [6] | IC50 [7] | IC50 ([2]; Homo sapiens) | IC50 ([3]; Homo sapiens) | IC50 ([4]; Homo sapiens) | SMILES
4.65 ± 0.02 µM | 13.5 ± 1.75 µM | 82.5 ± 7.15 µM | 2.45 ± 0.31 µM | – | – | – | – | – | – | – | COc1cccc2c1C(=O)c1c(O)c3c(c(O)c1C2=O)C[C@@](O)(C(=O)CO)C[C@@H]3O[C@H]1C[C@H](N)[C@H](O)[C@H](C)O1 [ADR, Adriamycin amycin, reference compound]
– | – | – | – | 16.1 ± 3.47 µM | 10.2 ± 0.86 µM | 5.66 ± 1.01 µM | 2900 ± 1020 nM | 24.5 ± 2.68 µM | 5.45 ± 0.61 µM | 19.4 ± 1.33 µM | COc1cc2ncnc(Nc3ccc(NCc4ccc(F)cc4)cc3)c2cc1OCCN1CCCC1 [Compound 8, N-[(4-fluorophenyl)methyl]-4-N-{7-methoxy-6-[(2-pyrrolidin-1-yl)hydroxyethyl]quinazolin-4-yl}phen-1,4-diamine]

From patent publication US9624179B1, “Quinazoline derivative Lu1501 and preparing method and application thereof” (NANJING GENERAL HOSPITAL OF NANJING MILITARY REGION OF PLA, priority 2015, dated 2017)
